Measured values as given in paper PMC5514907, “Targeting of the breast cancer microenvironment with a potent and linkable oxindole based antiangiogenic small molecule” (Oncotarget, 2017).
Entries after “also recorded” stand apart in the source; their conditions may differ. Where two headings read alike, the source gives them in different places.

Tests used:
[1] = target: T1, PDGFR-β (Mus musculus, UniProt P05622); experiment: Cellular ligand-dependent autophosphorylation assay (Western blot) in NIH/3T3; assay type: cell-based; conditions: NIH/3T3, PDGF-BB stimulated, ± SD
T1 construct: host or cells: NIH/3T3
T1 sequence (P05622 32-1098): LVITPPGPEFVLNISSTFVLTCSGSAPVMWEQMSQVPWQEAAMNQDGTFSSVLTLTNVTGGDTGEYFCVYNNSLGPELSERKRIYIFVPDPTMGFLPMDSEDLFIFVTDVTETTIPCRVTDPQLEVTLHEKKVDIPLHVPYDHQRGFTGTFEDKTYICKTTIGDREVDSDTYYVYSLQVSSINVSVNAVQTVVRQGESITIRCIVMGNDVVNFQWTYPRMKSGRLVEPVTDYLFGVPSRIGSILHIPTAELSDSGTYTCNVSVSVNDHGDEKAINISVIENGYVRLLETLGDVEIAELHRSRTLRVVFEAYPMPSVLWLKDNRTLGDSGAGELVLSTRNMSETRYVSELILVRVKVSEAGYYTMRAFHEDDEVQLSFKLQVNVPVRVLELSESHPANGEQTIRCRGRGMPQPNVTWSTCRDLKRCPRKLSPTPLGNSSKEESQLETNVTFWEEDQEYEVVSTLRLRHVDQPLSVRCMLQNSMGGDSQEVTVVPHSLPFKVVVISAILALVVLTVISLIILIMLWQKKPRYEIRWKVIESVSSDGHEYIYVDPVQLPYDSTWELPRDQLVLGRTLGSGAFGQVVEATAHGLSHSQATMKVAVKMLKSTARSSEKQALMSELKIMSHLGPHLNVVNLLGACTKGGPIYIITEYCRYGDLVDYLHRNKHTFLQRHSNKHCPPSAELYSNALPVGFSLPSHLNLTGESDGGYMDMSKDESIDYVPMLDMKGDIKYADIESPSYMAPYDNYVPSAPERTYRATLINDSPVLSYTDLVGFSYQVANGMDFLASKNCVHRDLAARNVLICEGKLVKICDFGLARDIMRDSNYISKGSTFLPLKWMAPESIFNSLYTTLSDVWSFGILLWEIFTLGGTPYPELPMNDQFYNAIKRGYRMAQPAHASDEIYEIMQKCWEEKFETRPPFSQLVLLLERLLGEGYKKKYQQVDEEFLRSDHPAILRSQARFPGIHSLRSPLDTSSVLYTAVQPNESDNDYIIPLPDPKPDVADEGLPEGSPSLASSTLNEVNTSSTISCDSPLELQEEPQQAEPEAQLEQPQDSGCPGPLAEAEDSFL

[2] = system: MCF7; experiment: MTT cytotoxicity assay; assay type: cell-based; conditions: Homo sapiens
[3] = system: T47D; experiment: MTT cytotoxicity assay; assay type: cell-based; conditions: Homo sapiens
[4] = system: ZR75-1; experiment: MTT cytotoxicity assay; assay type: cell-based; conditions: Homo sapiens, ZR-75-1
[5] = system: HCC1954; experiment: MTT cytotoxicity assay; assay type: cell-based; conditions: Homo sapiens
[6] = system: SKBR3; experiment: MTT cytotoxicity assay; assay type: cell-based; conditions: Homo sapiens, SK-BR-3
[7] = system: phosphorylation status of 18 kinases; experiment: In vivo kinase activity (PathScan intracellular signaling array) in HCC1954 tumor extracts; set-up: species or system NOD/SCID mice; conditions: HCC1954 tumors, d18
[8] = Cardiotoxicity, echocardiography of LV function; assay type: in vivo, C57BL/6 female mice; conditions: for %FS (Fractional Shortening) at one week post treatment: 100 μmol/Kg daily IP, vehicle 46.34 ± 0.56
[9] = system: E0771 BrCa murine cell line; experiment: In vivo antitumor efficacy, syngeneic model, ectopic implantation; set-up: species or system C57BL/6 mice; conditions: 100 μmol/Kg daily IP
From the text: (§1) Despite the efficacy and favourable safety profile of SAP in xenografted models of primary BrCa, a critical question that remained was its evaluation in a more clinically relevant disease model of BrCa that would involve interaction of cancer with the immune system, which is crucial for the progression of the disease.

[10] = system: E0771 BrCa murine cell line; experiment: In vivo antitumor efficacy, syngeneic model, orthotopic implantation; set-up: species or system C57BL/6 mice; conditions: 100 μmol/Kg daily IP
From the text: as §1

[11] = system: HCC1954 xenograft; conditions: HCC1954, 100 μmol/Kg/day IP; for average tumor size at d18: 18 days, vehicle 428 ± 101; for neo-angiogenesis upon sacrifice: d18; for average tumor weight upon sacrifice (d18): vehicle 0.26 ± 0.07
[12] = set-up: method as in PMID 26645560; conditions: IP, equimolar dose, previous results ref 18; cited from earlier work
[13] = in vivo; conditions: female, NOD/SCID, mouse, blood, ip, 100 μmol/Kg
[14] = in vivo; conditions: female, NOD/SCID, mouse, blood, ip, 100 μmol/Kg; remark: listed apart in the source
[15] = Hematotoxicity, blood analysis; conditions: 100 μmol/Kg daily IP, one week; vehicle 2.90 ± 0.8
[16] = target: T2, PDGFR-β (Homo sapiens, UniProt P09619); experiment: Biochemical tyrosine kinase assay (trans-phosphorylation, GST-fusion protein); conditions: in vitro kinase activity, ± SD; read-out: IC50 PDGFR-b
T2 construct: 557-end; purchased Sigma Aldrich G8671
T2 sequence (P09619 557-1106 limits assumed): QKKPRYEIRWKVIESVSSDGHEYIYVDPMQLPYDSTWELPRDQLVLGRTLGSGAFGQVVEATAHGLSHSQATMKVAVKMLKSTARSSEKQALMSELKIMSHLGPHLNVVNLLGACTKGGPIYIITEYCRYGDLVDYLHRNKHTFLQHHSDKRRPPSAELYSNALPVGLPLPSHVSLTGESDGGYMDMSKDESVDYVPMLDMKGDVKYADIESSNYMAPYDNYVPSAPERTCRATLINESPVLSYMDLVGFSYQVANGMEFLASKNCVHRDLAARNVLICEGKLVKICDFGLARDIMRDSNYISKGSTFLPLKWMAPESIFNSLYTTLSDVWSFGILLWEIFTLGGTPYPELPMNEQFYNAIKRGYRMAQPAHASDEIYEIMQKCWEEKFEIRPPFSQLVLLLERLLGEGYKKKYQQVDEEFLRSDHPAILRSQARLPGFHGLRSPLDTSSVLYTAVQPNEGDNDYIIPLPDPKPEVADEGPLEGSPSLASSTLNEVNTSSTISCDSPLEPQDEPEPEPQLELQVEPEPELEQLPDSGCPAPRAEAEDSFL

[17] = target: T3, KIT (Homo sapiens, UniProt P10721); experiment: as above; conditions: in vitro kinase activity, ± SD
T3 construct: 544-end; purchased Sigma Aldrich C0624
T3 sequence (P10721 544-976 limits assumed): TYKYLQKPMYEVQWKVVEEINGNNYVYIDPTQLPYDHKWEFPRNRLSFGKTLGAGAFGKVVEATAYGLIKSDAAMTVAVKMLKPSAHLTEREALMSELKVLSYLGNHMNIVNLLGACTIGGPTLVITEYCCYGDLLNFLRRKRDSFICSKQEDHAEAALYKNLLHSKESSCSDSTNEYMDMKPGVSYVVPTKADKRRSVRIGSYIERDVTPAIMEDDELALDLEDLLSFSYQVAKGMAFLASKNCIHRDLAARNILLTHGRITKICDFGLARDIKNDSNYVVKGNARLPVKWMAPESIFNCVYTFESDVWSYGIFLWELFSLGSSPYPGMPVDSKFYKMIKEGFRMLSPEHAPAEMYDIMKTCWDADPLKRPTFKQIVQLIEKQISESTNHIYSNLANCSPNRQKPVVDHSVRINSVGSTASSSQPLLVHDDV

[18] = target: T4, FLT3 (Homo sapiens, UniProt P36888); experiment: as above; conditions: in vitro kinase activity, ± SD
T4 construct: 571–993; purchased Sigma Aldrich F6432

[19] = target: T5, RET (Homo sapiens, UniProt P07949); experiment: as above; conditions: in vitro kinase activity, ± SD
T5 construct: 658-end; purchased Sigma Aldrich R7782
T5 sequence (P07949 658-1063 limits assumed): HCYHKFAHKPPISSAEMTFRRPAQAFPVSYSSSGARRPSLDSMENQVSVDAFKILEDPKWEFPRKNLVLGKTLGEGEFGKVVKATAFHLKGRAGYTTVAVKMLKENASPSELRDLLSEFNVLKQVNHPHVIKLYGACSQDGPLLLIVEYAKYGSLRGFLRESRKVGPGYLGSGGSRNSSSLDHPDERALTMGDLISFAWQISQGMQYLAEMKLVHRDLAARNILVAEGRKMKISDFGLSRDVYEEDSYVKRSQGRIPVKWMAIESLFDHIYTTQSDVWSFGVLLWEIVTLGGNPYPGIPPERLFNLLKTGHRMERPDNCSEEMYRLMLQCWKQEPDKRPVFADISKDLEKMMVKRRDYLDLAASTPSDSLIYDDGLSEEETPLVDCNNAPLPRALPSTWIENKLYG

[20] = target: T6, EGFR (Homo sapiens, UniProt P00533); experiment: Biochemical tyrosine kinase assay (trans-phosphorylation, GST-fusion protein), negative control; conditions: in vitro kinase activity
T6 construct: 695-end; purchased Sigma Aldrich SRP5023
T6 sequence (P00533 695-1210 limits assumed): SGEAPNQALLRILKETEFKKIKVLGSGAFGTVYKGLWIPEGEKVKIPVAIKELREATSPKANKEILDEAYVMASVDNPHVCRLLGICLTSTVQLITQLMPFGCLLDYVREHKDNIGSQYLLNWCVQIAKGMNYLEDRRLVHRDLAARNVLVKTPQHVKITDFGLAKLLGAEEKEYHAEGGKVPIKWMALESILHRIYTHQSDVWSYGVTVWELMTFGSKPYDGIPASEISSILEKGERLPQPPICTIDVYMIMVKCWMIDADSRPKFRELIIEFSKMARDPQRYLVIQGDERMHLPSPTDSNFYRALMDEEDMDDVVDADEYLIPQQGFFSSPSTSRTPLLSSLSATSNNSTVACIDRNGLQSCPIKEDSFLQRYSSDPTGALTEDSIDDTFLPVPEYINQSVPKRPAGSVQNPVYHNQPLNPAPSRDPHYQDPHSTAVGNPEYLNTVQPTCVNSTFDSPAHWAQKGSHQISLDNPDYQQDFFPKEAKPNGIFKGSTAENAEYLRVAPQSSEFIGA

[21] = target: VEGFR-2, PDGFR-β, KIT, FLT3 and RET; experiment: Biochemical tyrosine kinase assay, RTK panel summary; conditions: range over the RTK targets of sunitinib; read-out: IC50 over most of the RTKs
[22] = system: HUVEC; experiment: MTT cytotoxicity assay; assay type: cell-based; conditions: Homo sapiens
[23] = system: panel of BrCa cell lines and HUVEC; experiment: MTT cytotoxicity assay, summary over all cell lines; assay type: cell-based; conditions: Homo sapiens, range over six BrCa cell lines and HUVEC
[24] = system: MDA-MB-231; experiment: Wound healing/migration assay; assay type: cell-based; conditions: various concentrations, 24 hours
[25] = Pharmacokinetic evaluation in blood by LC-MS/MS; assay type: in vivo, female NOD/SCID mice; conditions: for AUC(0-t) / Tmax / Cmax: 100 umol/kg; for AUC(0-t) / Cmax: ± S.D.; for AUC(0-t): read-out: AUC0-24
Description: The in vitro efficacy of SAP was followed by its pharmacokinetic evaluation in mice. Initially, the PK parameters of SAP were compared in an oral versus IP administration (Figure 3).
Figure 3 Pharmacokinetic evaluation of SAP Female NOD/SCID mice (n = 6) were dosed per os or IP with SAP (100 μmol/Kg) and blood samples were collected at selected time points. Drug levels of SAP were monitored by LC-MS/MS. The AUC for each treatment was calculated as a measure of drug exposure over time. TEXT PRINTED IN THE PICTURE: SAP: Cmax (μmol/L) (± S.D.): 0.2 (± 0.1) (Administration Route: per os; Dose (μmol/Kg): 100); tmax (h): 1 (Administration Route: per os; Dose (μmol/Kg): 100); AUC0-24 (± S.D.) (h) x (μmol/L): 2.5 (± 2.3) (Administration Route: per os; Dose (μmol/Kg): 100); Cmax (μmol/L) (± S.D.): 27 (± 3.6) (Administration Route: Intraperitoneal; Dose (μmol/Kg): 100); tmax (h): 0.25 (Administration Route: Intraperitoneal; Dose (μmol/Kg): 100); AUC0-24 (± S.D.) (h) x (μmol/L): 50.3 (± 15.3) (Administration Route: Intraperitoneal; Dose (μmol/Kg): 100)
All animal procedures were approved by the Bioethical Committee of BRFAA based on the European Directive 86/609. For pharmacokinetic studies, female NOD/SCID mice (Charles River, Italy) were used (8–10 weeks old, n = 6 per group). Dosing solutions of SAP (100 μmol/Kg) were prepared in 20% 2-hydroxypropyl β-Cyclodextrin in sterile water (HP-b-CD). SAP was administered intraperitoneally (IP) or orally and blood samples were collected and prepared as described previously.

[26] = system: HCC1954 xenograft; experiment: Immunohistochemistry (Ki-67, CD31) of tumor sections; assay type: in vivo, NOD/SCID mice
[27] = system: Tg(kdrl:gfp)^s843 transgenic embryos; assay type: in vivo; conditions: for intersomitic vessel (ISV) formation / angiogenic sprouting at 48 hpf: treated from 24 to 48 hpf
[28] = Whole embryo LC-MS/MS biodistribution (bioaccumulation); assay type: in vivo, zebrafish; conditions: 24h post drug exposure, 50 μM, data not shown
[29] = target: T7, VEGFR-2 (Homo sapiens, UniProt P35968); experiment: Cellular ligand-dependent autophosphorylation assay (Western blot) in HUVEC; assay type: cell-based; set-up: host or cells: HUVEC; conditions: VEGF165 stimulated, ± SD
Target sequence in this assay (P35968 20-1356): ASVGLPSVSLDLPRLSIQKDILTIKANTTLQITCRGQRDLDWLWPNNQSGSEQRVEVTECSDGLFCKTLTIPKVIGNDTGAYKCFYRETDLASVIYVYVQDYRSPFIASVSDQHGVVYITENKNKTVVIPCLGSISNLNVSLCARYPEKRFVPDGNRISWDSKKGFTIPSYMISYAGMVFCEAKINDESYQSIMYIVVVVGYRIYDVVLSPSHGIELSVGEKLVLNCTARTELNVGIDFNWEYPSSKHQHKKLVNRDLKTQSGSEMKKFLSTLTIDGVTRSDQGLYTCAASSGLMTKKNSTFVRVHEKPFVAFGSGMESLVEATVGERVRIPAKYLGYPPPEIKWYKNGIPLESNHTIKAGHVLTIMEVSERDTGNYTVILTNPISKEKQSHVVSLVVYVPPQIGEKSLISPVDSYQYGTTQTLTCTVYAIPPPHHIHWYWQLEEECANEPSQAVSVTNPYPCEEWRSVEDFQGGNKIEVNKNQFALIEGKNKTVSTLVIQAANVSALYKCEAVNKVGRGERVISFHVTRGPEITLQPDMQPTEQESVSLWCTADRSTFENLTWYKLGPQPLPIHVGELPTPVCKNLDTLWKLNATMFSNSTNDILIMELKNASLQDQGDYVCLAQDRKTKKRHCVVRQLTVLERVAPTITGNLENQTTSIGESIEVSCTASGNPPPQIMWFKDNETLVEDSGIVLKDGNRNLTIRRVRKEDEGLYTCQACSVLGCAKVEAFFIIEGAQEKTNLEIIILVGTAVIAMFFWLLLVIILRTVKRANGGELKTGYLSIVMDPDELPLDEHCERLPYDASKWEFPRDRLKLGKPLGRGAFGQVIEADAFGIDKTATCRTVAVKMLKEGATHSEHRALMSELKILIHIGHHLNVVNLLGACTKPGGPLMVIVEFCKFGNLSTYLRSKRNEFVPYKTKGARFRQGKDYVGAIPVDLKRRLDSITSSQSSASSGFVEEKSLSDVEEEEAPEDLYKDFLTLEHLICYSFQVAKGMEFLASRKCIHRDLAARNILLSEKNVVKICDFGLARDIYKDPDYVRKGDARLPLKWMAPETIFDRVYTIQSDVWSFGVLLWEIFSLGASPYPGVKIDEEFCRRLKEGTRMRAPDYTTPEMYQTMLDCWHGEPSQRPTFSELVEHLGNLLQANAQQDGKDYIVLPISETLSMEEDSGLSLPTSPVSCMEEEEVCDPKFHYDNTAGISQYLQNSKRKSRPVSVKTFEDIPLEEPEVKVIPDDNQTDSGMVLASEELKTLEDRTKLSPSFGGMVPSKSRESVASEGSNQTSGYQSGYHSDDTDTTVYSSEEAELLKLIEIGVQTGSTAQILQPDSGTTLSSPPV

[30] = target: T7, VEGFR-2; experiment: Biochemical tyrosine kinase assay (trans-phosphorylation, GST-fusion protein); set-up: 789-end; purchased Sigma Aldrich K2643; conditions: in vitro kinase activity, ± SD
Target sequence in this assay (P35968 789-1356 limits assumed): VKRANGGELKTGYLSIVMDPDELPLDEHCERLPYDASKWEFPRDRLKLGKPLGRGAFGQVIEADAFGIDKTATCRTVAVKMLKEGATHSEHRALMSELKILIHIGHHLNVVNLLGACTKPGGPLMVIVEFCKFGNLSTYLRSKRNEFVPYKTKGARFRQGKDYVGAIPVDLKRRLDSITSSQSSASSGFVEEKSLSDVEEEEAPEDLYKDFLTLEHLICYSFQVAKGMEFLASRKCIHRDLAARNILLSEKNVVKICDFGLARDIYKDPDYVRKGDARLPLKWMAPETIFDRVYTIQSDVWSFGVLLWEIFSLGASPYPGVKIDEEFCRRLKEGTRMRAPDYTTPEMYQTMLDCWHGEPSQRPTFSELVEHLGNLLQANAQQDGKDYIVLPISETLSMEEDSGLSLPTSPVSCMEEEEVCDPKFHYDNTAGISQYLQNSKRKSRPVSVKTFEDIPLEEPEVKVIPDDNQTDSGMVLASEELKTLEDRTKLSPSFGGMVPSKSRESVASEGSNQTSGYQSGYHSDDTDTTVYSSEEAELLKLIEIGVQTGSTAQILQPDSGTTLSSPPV

[31] = female, NOD/SCID, mouse, ip, intraperitoneal, blood
[32] = female, NOD/SCID, mouse, po, per os, blood

With `CCN(CC)CCNC(=O)c1c(C)[nH]c(/C=C2\C(=O)Nc3ccc(F)cc32)c1C` [sunitinib, reference compound] the IC50 [1] was 0.072 ± 0.019 µM, the IC50 [2] was 11.2 µM and the IC50 [3] was 11.5 µM. The IC50 [4] was 11.4 µM, the IC50 [5] was 13.9 µM and the IC50 [6] was 13.2 µM. For the same compound, the “phosphorylation status of kinases in tumor extracts versus vehicle” value [7] was “marked downregulation of pErk1/2 (Thr202/Tyr204), pAkt (Ser473) and pGSK3 (Ser9)”, the “%FS (Fractional Shortening) at one week post treatment” value [8] was 45.42 ± 0.11% and the “tumour growth versus vehicle” value [9] was “significant tumour growth inhibition”. The “tumour growth versus vehicle” value [10] was “significant tumour growth inhibition”, the “average tumor size at d18” value [11] was 152 ± 57 mm^3 and the neo-angiogenesis upon sacrifice [11] was “only traces of newly formed blood vessels”. The “average tumor weight upon sacrifice (d18)” value [11] was 0.07 ± 0.03 g, the “AUC0−24 h” value [12] was 21.4 ± 3.6 h x μmol/L and the Cmax [12] was 6.5 ± 0.9 µM. For the same compound, the Tmax [12] was 15 min, the concentration at 1 h [13] was 10.3 ± 3.7 µM and the concentration at 1 h [14] was 10.8 ± 2.1 µM. The “white blood cell populations” value [15] was 2.24 ± 0.5 × 10^3 cells.
`Cc1[nH]c(/C=C2\C(=O)Nc3ccc(F)cc32)c(C)c1C(=O)NCCN1CCNCC1` [SAP] showed an IC50 [16] of 0.093 µM, an IC50 [17] of 0.061 µM and an IC50 [18] of 0.069 µM. The IC50 [19] was 0.102 µM, the IC50 [20] was over 10 µM and the IC50 [21] was 0.061 to 0.102 µM. The IC50 [1] was 0.076 ± 0.022 µM, the IC50 [2] was 10.3 µM and the IC50 [3] was 6.5 µM. It also gave an IC50 [4] of 14.1 µM, an IC50 [5] of 13.5 µM and an IC50 [6] of 15.5 µM. The IC50 [22] was 14.2 µM, the IC50 [23] was 6.5 to 15.8 µM and the “MDA-MB-231 migration in wound healing assay” value [24] was “inhibited MDA-MB-231 migration”. For the same compound, the concentration at 8 h ([25]; female, NOD/SCID, mouse, ip, 100 μmol/Kg, intraperitoneal, 100 umol/Kg, blood, 8 h post-dose, read-out: C8 h) was 0.93 ± 0.3 µM, the AUC(0-t) ([25]; female, NOD/SCID, mouse, ip, intraperitoneal, 100 μmol/Kg, blood) was 50.3 ± 15.3 µM·h and the Tmax [25, 31] was 15 min. The Cmax [25, 31] was 27 ± 3.6 µM, the AUC(0-t) ([25]; female, NOD/SCID, mouse, po, per os, 100 μmol/Kg, blood) was 2.5 ± 2.3 µM·h and the Tmax [25, 32] was 60 min. The Cmax [25, 32] was 0.2 ± 0.1 µM, the “time for which concentrations of at least 0.1 μmol/L are sustained post-dose” value ([25]; intraperitoneal, 100 umol/Kg) was “more than 8 h” and the “signs of discomfort or overt toxicity in treated mice” value ([25]; single dose 100 μmol/Kg, per os or IP) was “No signs of discomfort or overt toxicity”. For the same compound, the “average number of CD31+ cells in tumor sections” value ([26]; d18, vehicle 42.4 ± 8.3) was 16.6 ± 7.1, the “Ki-67 assessed PI (proliferation index)” value ([26]; d18, vehicle 82.3 ± 11.1) was 19.2 ± 4.9% and the “phosphorylation status of kinases in tumor extracts versus vehicle” value [7] was “marked downregulation of pErk1/2 (Thr202/Tyr204), pAkt (Ser473) and pGSK3 (Ser9)”. The “toxic or off-target morphological phenotypes” value ([27]; 50 μM, 24h treatment) was “No toxic or off-target morphological phenotypes”, the “intersomitic vessel (ISV) formation / angiogenic sprouting at 48 hpf” value ([27]; 50 μM) was “uniform GFP expression in intersomitic vessels; also recorded: minor ISV formation inhibition” and the “intersomitic vessel (ISV) formation / angiogenic sprouting at 48 hpf” value ([27]; 100 μM) was “inhibited angiogenic sprouting; also recorded: more profound”. For the same compound, the “uptake from fish embryos” value [28] was about 50%, the “%FS (Fractional Shortening) at one week post treatment” value [8] was 42.38 ± 0.76% and the “%FS (Fractional Shortening), baseline measurement” value ([8]; before treatment) was 47.48 ± 0.91%. For the same compound, the “tumour growth versus vehicle” value [9] was “significant tumour growth inhibition”, the “tumour growth versus vehicle” value [10] was “significant tumour growth inhibition” and the “average tumor size at d18” value [11] was 76 ± 52 mm^3. The neo-angiogenesis upon sacrifice [11] was “only traces of newly formed blood vessels”, the “average tumor weight upon sacrifice (d18)” value [11] was 0.05 ± 0.02 g and the IC50 [29] was 0.052 ± 0.014 µM. The “white blood cell populations” value [15] was 2.54 ± 1.0 × 10^3 cells and the IC50 [30] was 0.075 µM.
